We go through 55 substances from patent US9522962B2, “Peptides, conjugates and method for increasing immunogenicity of a vaccine” (Academisch Ziekenhuis Leiden h.o.d.n. LUMC, priority 2010, dated 2016).

This test relates to antibodies in TETAQUIN® (anti-TTd antibodies). Type of test: binding, human. To be noted: for binding to TETAQUIN (screen of overlapping 22-mer TTx peptides): FIG. 3 (α-chain), FIG. 4 (β-chain); for ELISA OD, effect of longer spacer and C- versus N-terminal biotinylation: Table 4, antibody source not given. In general terms: ELISA stands for enzyme-linked immunosorbent assay.
The mark [1] stands for this setting: Table 2, length variants of peptide β-32, section 'With linker', […] diluted 800x, OD at 415 nm.
Where [2] appears, read: Table 2, length variants of peptide β-32, section 'Without linker' (sequence listed without Z O), […].
The mark [3] stands for this setting: Table 3, further length variants and Lys(formyl) variants, […], neg. control OD 0.30.

“Also recorded” adds a separate entry of the source. Like-named read-outs stand apart in the source and are kept apart here. Square brackets hold non-standard residues; d marks the D form. Ends that are not written are not given here. * marks the point of attachment. Biotin = O=C1N[C@H]2[C@H](CS[C@H]2CCCCC(=O)*)N1; code O = not defined here; Ahx = NCCCCCC(=O)O; For = O=C*

“A N S K F I G I T E L K K L E S K I Z O (ANSKFIGITELKKLESKI-{Ahx-code O}; reading uncertain) [P4]” showed an OD under setting [1] of 1.05 and an OD under setting [2] of 1.05.

With “A N S K F I G I T E L K K L E S Z O (ANSKFIGITELKKLES-{Ahx-code O}; reading uncertain) [P8]”, the OD by setting is: under setting [1], 0.85; under setting [2], 0.85.

Consider “A N S K F I G I T E L K K L Z O (ANSKFIGITELKKL-{Ahx-code O}; reading uncertain) [P13]”, for which the OD was 0.6 under setting [1] and 0.6 under setting [2].

Regarding “A N S K F I G I T E L K Z O (ANSKFIGITELK-{Ahx-code O}; reading uncertain) [P19]”, the OD is, setting by setting: under setting [1], 0.2; under setting [2], 0.2.

In the case of “A N S K F I G I T E Z O (ANSKFIGITE-{Ahx-code O}; reading uncertain) [P26]”, the OD by setting is: under setting [1], 0.2; under setting [2], 0.2.

As to “A N S K F I G I Z O (ANSKFIGI-{Ahx-code O}; reading uncertain) [P34]”, the OD under setting [1] is recorded as 0.2 and the OD under setting [2] was 0.2.

For AMDIEYNDMFNNFTVSFWLRVPZO [β41], the “binding to TETAQUIN (screen of overlapping 22-mer TTx peptides)” value (from here on “binding to TETAQUIN”) is listed as “good binding; also recorded: antibodies present”.

Consider “E L K K L E S K I N K V F S Z O [0925-62]”, for which the OD under setting [3] is on record as 0.35.

Take ELGKKFNIKTRLSYFSMNHDPVZO [α31]: the “binding to TETAQUIN” value is recorded as “good binding; also recorded: antibodies present”.

As for “F I G I T E L J J L E S J I Z O [0925-70, J = Lys(formyl)]”, the OD under setting [3] is 1.00.

With “F I G I T E L J J L E S K I Z O [0925-67, J = Lys(formyl)]”, the OD under setting [3] was 1.15.

As to “F I G I T E L J K L E S K I Z O [0925-64, J = Lys(formyl)]”, under setting [3], the OD worked out at 1.70.

As to “F I G I T E L K J L E S J I Z O [0925-69, J = Lys(formyl)]”, the OD under setting [3] is 1.65.

The substance “F I G I T E L K J L E S K I Z O [0925-65, J = Lys(formyl)]” registered an OD under setting [3] of 1.50.

“F I G I T E L K K L E S J I Z O (FIGITELKKLESK(For)I[Ahx]K; not fully specified (residue 16)) [0925-66, J = Lys(formyl)]”: under setting [3], the OD is recorded as 2.10.

As for “FIGITELKKLESKINKVFST Z O [0925-52]”, under setting [3], the OD came out at 1.85.

For the substance “F I G I T E L K K L E S K I N K V F S Z O [0925-53]”, under setting [3], the OD was 1.90.

Regarding “F I G I T E L K K L E S K I N K V F Z Z O (FIGITELKKLESKINKVF[Ahx][Ahx]K; not fully specified (residue 21); also: O: biotin modification, exact residue form not clear)”, the “ELISA OD, effect of longer spacer and C- versus N-terminal biotinylation” value is listed as 1.16.

Regarding “F I G I T E L K K L E S K I N K V Z O (FIGITELKKLESKINKV[Ahx]K; not fully specified (residue 19); also: O: biotin modification, exact residue form not clear) [0925-55]”, the OD under setting [3] is listed as 2.00.

As for “F I G I T E L K K L E S K I N K V Z Z O (FIGITELKKLESKINKV[Ahx][Ahx]K(Biotin))”, the “ELISA OD, effect of longer spacer and C- versus N-terminal biotinylation” value is 0.68.

“F I G I T E L K K L E S K I N K Z O (FIGITELKKLESKINK[Ahx]K(Biotin)) [0925-56]”: under setting [3], the OD amounted to 1.55.

On to “F I G I T E L K K L E S K I N K Z Z O (FIGITELKKLESKINK[Ahx][Ahx]K(Biotin))”, for which the “ELISA OD, effect of longer spacer and C- versus N-terminal biotinylation” value is listed as 0.65.

On to “F I G I T E L K K L E S K I N Z O (FIGITELKKLESKIN[Ahx]K(Biotin)) [0925-57]”, for which the OD under setting [3] turned out to be 1.65.

“F I G I T E L K K L E S K I N Z Z O (FIGITELKKLESKIN[Ahx][Ahx]K(Biotin))”: the “ELISA OD, effect of longer spacer and C- versus N-terminal biotinylation” value is 0.64.

In turn, “F I G I T E L K K L E S K I Z O (FIGITELKKLESKI-{Ahx-code O}; reading uncertain) [P11]” came in with an OD under setting [1] of 1.0 and an OD under setting [2] of 1.0.

Turning to “F I G I T E L K K L E S K I Z Z O (FIGITELKKLESKI[Ahx][Ahx]K(Biotin))”, the “ELISA OD, effect of longer spacer and C- versus N-terminal biotinylation” value was found to be 0.79.

For the substance “F I G I T E L K K L E S Z O (FIGITELKKLES-{Ahx-code O}; reading uncertain) [P17]”, the OD under setting [1] is 0.45 and the OD under setting [2] came to 0.45.

For “F I G I T E L K K L Z O (FIGITELKKL-{Ahx-code O}; reading uncertain) [P24]”, the OD under setting [1] stood at 0.35 and the OD under setting [2] was 0.35.

“F I G I T E L K Z O (FIGITELK-{Ahx-code O}; reading uncertain) [P32]”: the OD worked out at 0.2 under setting [1] and 0.2 under setting [2].

Substance “G I T E L K K L E S K I N K Z O (GITELKKLESKINK[Ahx]K(Biotin)) [0925-59]” came in with an OD under setting [3] of 0.75.

Regarding “G I T E L K K L E S K I Z O (GITELKKLESKI-{Ahx-code O}; reading uncertain) [P16]”, the OD was 0.45 under setting [1] and 0.45 under setting [2].

“G I T E L K K L E S Z O (GITELKKLES-{Ahx-code O}; reading uncertain) [P23]”: the OD under setting [1] is recorded as 0.25 and the OD under setting [2] was 0.25.

As for “G I T E L K K L Z O (GITELKKL-{Ahx-code O}; reading uncertain) [P31]”, the OD was found to be 0.2 under setting [1] and 0.2 under setting [2].

“I G I T E L K K L E S K I N Z O (IGITELKKLESKIN[Ahx]K(Biotin)) [0925-58]”: the OD under setting [3] turned out to be 1.45.

“IKANSKFIGITELKKLESKI Z O (IKANSKFIGITELKKLESKI-{Ahx-code O}; reading uncertain) [P2]”: the OD by setting is: under setting [1], 1.2; under setting [2], 1.2.

Take “I K A N S K F I G I T E L K K L E S Z O (IKANSKFIGITELKKLES-{Ahx-code O}; reading uncertain) [P5]”: the OD by setting is: under setting [1], 0.9; under setting [2], 0.9.

With “I K A N S K F I G I T E L K K L Z O (IKANSKFIGITELKKL-{Ahx-code O}; reading uncertain) [P9]”, the OD was 0.6 under setting [1] and 0.6 under setting [2].

Regarding “I K A N S K F I G I T E L K Z O (IKANSKFIGITELK-{Ahx-code O}; reading uncertain) [P14]”, the OD is on record as 0.2 under setting [1] and 0.2 under setting [2].

Regarding “I K A N S K F I G I T E Z O (IKANSKFIGITE-{Ahx-code O}; reading uncertain) [P20]”, the OD is, setting by setting: under setting [1], 0.2; under setting [2], 0.2.

For “I K A N S K F I G I Z O (IKANSKFIGI-{Ahx-code O}; reading uncertain) [P27]”, the OD is, setting by setting: under setting [1], 0.2; under setting [2], 0.2.

In the case of “I K A N S K F I Z O (IKANSKFI-{Ahx-code O}; reading uncertain) [P35]”, the OD is 0.2 under setting [1] and 0.2 under setting [2].

With IGALETTGVVLLLEYIPEITLPZO [β18], the “binding to TETAQUIN” value is given as “good binding; also recorded: antibodies present”.

As to J Z F I G I T E L K K L E S K I N K V F, the “ELISA OD, effect of longer spacer and C- versus N-terminal biotinylation” value stood at 0.17.

With “J Z SKFIGITELKKLESKINKVF”, the “ELISA OD, effect of longer spacer and C- versus N-terminal biotinylation” value stood at 0.28.

For the substance “J Z Z F I G I T E L K K L E S K I N K V F”, the “ELISA OD, effect of longer spacer and C- versus N-terminal biotinylation” value turned out to be 0.22.

Turning to “J Z Z SKFIGITELKKLESKINKVF (SKFIGITELKKLESKINKVF) [J = Biotin (N-terminal), Z = Ahx]”, the “ELISA OD, effect of longer spacer and C- versus N-terminal biotinylation” value is reported as 0.47.

For KALNPKEIEKLYTSYLSITFLRZO [β54], the “binding to TETAQUIN” value was “good binding; also recorded: antibodies present”.

With KFNAYLANKWVFITITNDRLSSZO [β48], the “binding to TETAQUIN” value is “good binding; also recorded: antibodies present”.

Under setting [3], “L K K L E S K I N K V F S T Z O (LKKLESKINKVFST[Ahx]K(Biotin)) [0925-63]” returned an OD of 0.40.

Consider “L K K L E S K I Z O (LKKLESKI-{Ahx-code O}; reading uncertain) [P29]”, for which the OD by setting is: under setting [1], 0.2; under setting [2], 0.2.

“QYIKANSKFIGITELKKLES Z O (QYIKANSKFIGITELKKLES-{Ahx-code O}; reading uncertain) [P3]”: the OD reads like this: under setting [1], 1.1; under setting [2], 1.1.

Regarding “Q Y I K A N S K F I G I T E L K K L Z O (QYIKANSKFIGITELKKL-{Ahx-code O}; reading uncertain) [P6]”, the OD runs as follows: under setting [1], 0.75; under setting [2], 0.75.

As for “Q Y I K A N S K F I G I T E L K Z O (QYIKANSKFIGITELK-{Ahx-code O}; reading uncertain) [P10]”, the OD by setting is: under setting [1], 0.25; under setting [2], 0.25.

For the substance “Q Y I K A N S K F I G I T E Z O (QYIKANSKFIGITE-{Ahx-code O}; reading uncertain) [P15]”, the OD by setting is: under setting [1], 0.25; under setting [2], 0.25.

“Q Y I K A N S K F I G I Z O (QYIKANSKFIGI-{Ahx-code O}; reading uncertain) [P21]” had an OD under setting [1] of 0.2 and an OD under setting [2] of 0.2.
